In patent US20050050594A1, “Tryptophan synthase as a site of herbicide action” (priority 1999, published 2005):

Key:
Arabidopsis thaliana = assay: Herbicidal activity and tryptophan reversal on Arabidopsis grown on agar medium; assay type: in vivo; parameters: key: 0 - no effect; 9 - total kill; C - chlorotic seedlings 4-6 days after treatment
Experimental: In this experiment, TS inhibitors were tested on Arabidopsis thaliana grown Murashige minimal organics medium, (obtained from Life Technologies, Grand Island, N.Y.), containing 0.7% agar. Compounds were tested at different concentrations to assess their herbicidal activity.

[1] = system: a variety of dicotyledonous and monocotyledonous plants; assay: Postemergence greenhouse herbicidal test; assay type: in vivo; conditions: Postemergence application
Experimental: The herbicidal activity of the compounds was tested as described in the U.S. Pat. No. 5,635,449. […] In the tests, seedling plants are grown in jiffy flats for about two weeks. The test compounds are dispersed in 50/50 acetone/water mixtures containing 0.5% TWEEN®20, a polyoxyethylene sorbitan monolaurate surfactant of Atlas Chemical Industries, in sufficient quantities to provide the equivalent of about 1.0 kg to 8.0 kg per hectare of test compound when applied to the plants through a spray nozzle operating at 40 psi for a predetermined time. After spraying, the plants are placed on greenhouse benches and are cared for in the usual manner, commensurate with conventional greenhouse practices. From four to five weeks after treatment, the seedling plants are examined and rate according to the rating system set forth below.

[2] = system: mustard, hemp sesbania, soybean, lambsquarters, pigweed, bindweed, morningglory, corn, green foxtail, velvetleaf; assay: Early injury symptoms and species effects on postemergence treated plants; assay type: in vivo; conditions: post emergence, 4 or 8 kg/ha; for Symptoms 6 DAT: 6 days after application
Description: Herbicidal compounds of the invention were examined for their herbicidal effects by observing symptoms on postemergence treated plants.
Early injury symptoms caused by the TS-inhibiting herbicides of the invention are represented in Table 13. Symptoms and species effects are represented through the herbicidal activity {4-[(o-hydroxyphenyl)thio]butyl}-phosphonic acid, applied at 4 or 8 kg/ha.

TSβ (Spinacea enzyme) = assay: TSβ assay with partially purified spinach enzyme; assay type: biochemical, Spinacea oleracea; parameters: key: the increase in the number of “+” corresponds to the increase of inhibition; +++++: the increase in the number of “+” corresponds to the increase of inhibition; +++++++: the increase in the number of “+” corresponds to the increase of inhibition; conditions: determined qualitatively
Experimental: The assay was conducted in microfuge tubes by the TSβ reaction (indole+L-serine→L-tryptophan+H2O). 100 μL of extract was mixed with 150 μL of 0.4 mM indole, 80 mM serine, 0.03 mM PLP, 0.1 M Tris-Cl buffer pH 7.8, containing 7.5 μL of saturated NaCl. The mixture was incubated at 21° C. for increasing time intervals, from 10 min to several hours. The reaction was terminated by adding 25 μL 1 N NaOH, then 1 mL toluene with mixing, and then centifuging in a microfuge 2 min at 10,000×G to partition remaining indole into the toluene phase and away from the enzyme. Remaining indole was subsequently partitioned into the indole reagent phase and reacted with dimethylaminobenzaldehyde: 500 μL of the toluene layer from the microfuge tubes was mixed with 1 ml of the indole reagent in another tube and allowed to separate for 20 min, then the lower layer was carefully pipetted into a cuvette and its absorbance measured at 540 nm. This part of the assay was conducted as known in the art.
A unique microtiter plate method was also developed to streamline the partitioning steps and data collection. First, the TSβ reaction was performed as above in microfuge tubes. […] The plate was covered by a mylar sheet (to protect the plate reader and avoid evaporation) and absorbance was monitored on the plate reader at 535 nm. […]
TS was partially purified from spinach for use in the TSβ assay. The greatest degree of purification was achieved by homogenizing the tissue, preparing the 30-50% ammonium sulfate fraction and freezing it, thawing it, and applying the dissolved precipitate to an FPLC column (Waters SW300, Waters Corporation, Franklin, Mass.) to separate the TS activity (measured as TSβ) from the bulk of the protein. […] Because of the low yield of the assay of partially purified plant TS, endogenous enzyme was measured in crude extracts or in enzyme preparations involving one or two purification steps. […]

For `O=P(O)(O)CCCCSc1ccccc1O` [Compound 22, {4-[(o-hydroxyphenyl)thio]butyl}-phosphonic acid], the herbicidal injury rating (Arabidopsis thaliana; herbicide 7.8 μM) was 0, the herbicidal injury rating (Arabidopsis thaliana; herbicide 16 μM) was 1 and the herbicidal injury rating (Arabidopsis thaliana; herbicide 31 μM) was 1C. The herbicidal injury rating (Arabidopsis thaliana; herbicide 63 μM) was 3C, the herbicidal injury rating (Arabidopsis thaliana; herbicide 125 μM) was 3C and the herbicidal injury rating (Arabidopsis thaliana; herbicide 250 μM) was 3C. For the same compound, the herbicidal injury rating (Arabidopsis thaliana; herbicide 500 μM) was 5C, the herbicidal injury rating (Arabidopsis thaliana; herbicide 1000 μM) was 6C and the herbicidal rating (Arabidopsis thaliana; herbicide 7.8 mM, no Trp) was 5. It also gave a herbicidal rating (Arabidopsis thaliana; herbicide 16 mM, no Trp) of 5, a herbicidal rating (Arabidopsis thaliana; herbicide 31 mM + 100 μM Trp) of 0 and a herbicidal rating (Arabidopsis thaliana; herbicide 31 mM, no Trp) of 6. The herbicidal rating (Arabidopsis thaliana; herbicide 63 mM + 100 μM Trp) was 1, the herbicidal rating (Arabidopsis thaliana; herbicide 63 mM, no Trp) was 6 and the herbicidal rating (Arabidopsis thaliana; herbicide 125 mM + 100 μM Trp) was 3. The herbicidal rating (Arabidopsis thaliana; herbicide 125 mM, no Trp) was 6, the herbicidal rating (Arabidopsis thaliana; herbicide 250 mM + 100 μM Trp) was 5 and the herbicidal rating (Arabidopsis thaliana; herbicide 250 mM, no Trp) was 6. The herbicidal rating (Arabidopsis thaliana; herbicide 500 mM + 100 μM Trp) was 3, the herbicidal rating (Arabidopsis thaliana; herbicide 500 mM, no Trp) was 6 and the herbicidal rating (Arabidopsis thaliana; herbicide 1000 mM + 100 μM Trp) was 3. For the same compound, the herbicidal rating (Arabidopsis thaliana; herbicide 1000 mM, no Trp) was 7, the “Herbicidal Activity” value [1] was “+++ (+++ = 80-100% injury to two species)” and the “Symptoms 6 DAT” value ([2]; height reduction) was “height reduction: lambs quarter,”. For the same compound, the “Symptoms 6 DAT” value ([2]; increased branching) was “increased branching: soybean”, the “Symptoms 6 DAT” value ([2]; leaf mottling) was “leaf mottling: mustard, soybean,” and the “Symptoms 6 DAT” value ([2]; leaf yellowing) was “leaf yellowing: mustard, hemp”. The “Symptoms 6 DAT” value ([2]; shoot tip yellowing) was “shoot tip yellowing: hemp sesbania”, the “Symptoms 6 DAT” value ([2]; tip necrosis) was “tip necrosis: hemp sesbania” and the “Species effects, 13 DAT: bindweed” value ([2]; 13 days after application) was “bindweed: mottling, some necrosis,”. For the same compound, the “Species effects, 13 DAT: corn” value ([2]; 13 days after application) was “corn: unaffected”, the “Species effects, 13 DAT: green foxtail” value ([2]; 13 days after application) was “green foxtail: stunted, yellowing, red” and the “Species effects, 13 DAT: hemp sesbania” value ([2]; 13 days after application) was “hemp sesbania: no growth between 6”. For the same compound, the “Species effects, 13 DAT: lambsquarters height reduction” value ([2]; 13 days after application) was “lambsquarters: 40% height reduction,”, the “Species effects, 13 DAT: pigweed height reduction” value ([2]; 13 days after application) was “pigweed: 25% height reduction” and the “Species effects, 13 DAT: soybean” value ([2]; 13 days after application) was “soybean: shoot nearly dead except”. For the same compound, the “Species effects, 13 DAT: velvetleaf height reduction” value ([2]; 13 days after application) was “velvetleaf: 50% height reduction” and the “TSβ (Spinacea enzyme), relative activity” value (TSβ (Spinacea enzyme)) was “+”.
